Data published in patent US20030040504A1, “Ectoparasiticidal compositions and methods of their use” (priority 2001, published 2003).

Key:
[1] = at 60° C.; cited from earlier work
[2] = cited from earlier work
[3] = rat, guinea pig, rabbit, hamster, dog or human; cited from earlier work
head lice = test: Viability of head lice on filter paper (Example 2); format: in vivo, head lice (Pediculus capitis)
Procedure: The viability of head lice was tested on filter paper under conditions as described in Example 1.

[4] = tested on: head lice collected from Bristol school children; test: Filter paper disk test of malathion, OVIDE lotion and Composition II on resistant head lice (Example 1); format: in vivo, head lice (Pediculus capitis); conditions: for percentage activity of the lice, 100 being all alive, 0 being all dead: impregnated filter paper disk
Procedure: Following approval by the South and West Hospital research ethics committee, three primary schools in south Bristol, U.K. were contacted and arrangements were made with the headmaster/mistress and the school nurse to visit the schools and comb the hair of every child who has parental permission. Head lice were collected from children between 4 years and 11 years of age using plastic louse detector combs.
Head lice were placed and maintained at about 30° C. and about 70% relative humidity in a portable incubator for up to about two hours before being placed on filter paper test disks in small disposable petri dishes. These conditions of maintenance were the optimum for the lice off the human head. These head lice were then randomly distributed to petri dishes containing the control or impregnated disks and their activity was monitored by inspection over a four hour period. Since the portable incubator was designed to function either from the mains or a 12 volt source (cigarette lighter outlet in a car) the checking of lice activity was undertaken after leaving the school.
The disks, 5 cm in diameter, are paper, Whatman No. 1 Control paper disks were prepared by dipping papers into isopropanol and allowed to dry. Paper disks were prepared by dipping the paper into the solution of insecticide and allowed it to dry. Solutions used with the paper disks were 0.5% malathion in isopropanol, OVIDE® (malathion 0.5%) lotion, or Composition II disclosed herein. The dried paper disks were then stored overnight in air tight containers before using them the next day.
In the two subsequent tests, filter paper test disks were also used.
Values are given as percentage activity of the lice, 100 being all alive, 0 being all dead.

Compound: c1ccc2c(c1)CCCC2 [1,2,3,4-tetrahydronaphthalene]
- Solubility in Water [1]: < 0.01 % weight
- symptoms observed with acute exposures in humans [2]: transient liver damage; production of green-gray urine; CNS excitant at low concentration; depressant at high concentration; nephrotoxic (renal system damage); cataracts; liver and kidney damage; and cytotoxic to ascites cells in culture during short-term mutagenicity testing

Compound: CC1=CCC(O)(C(C)C)CC1 (stereo not drawn) [1-terpinen-4-ol, 1-methyl-4-isopropyl-delta-cyclohexene-4-ol]
- symptoms observed with acute exposures in humans [2]: CNS depression; cyanosis in extremities; increased urine volume; anti-microbial activity (α-terpineol does not have this activity); and greatly decreased allergic contact eczema compared to dipentene

Compound: C=C(C)C1CC=C(C)CC1 (stereo not drawn) [Dipentene, 1-methyl-4-(1-methylethenyl)cyclohexene]
- symptoms observed with acute exposures in humans [2]: increased bile flow; hypothermia; increased cytochrome P450 content; hematuria (blood in urine); albuminuria (serum globulin in urine); tachycardia (rapid heart rate); increased allergic contact eczema; and no CNS involvement
- metabolic conversion to α-terpineol or 1-terpinen-4-ol [3]: not metabolically converted to either α-terpineol or to 1-terpinen-4-ol

Compound: CCOC(=O)CC(SP(=S)(OC)OC)C(=O)OCC (stereo not drawn) [Malathion, [(dimethoxyphosphinothioyl)thio]butanedioic acid diethyl ester]
- Percent of Lice Still Alive (head lice; After 1 minute): 100%
- Percent of Lice Still Alive (head lice; After 5 minutes): 100%
- Percent of Lice Still Alive (head lice; After 10 minutes): 100%
- Percent of Lice Still Alive (head lice; After 20 minutes): 100%
- Percent of Lice Still Alive (head lice; After 30 minutes): 100%
- Percent of Lice Still Alive (head lice; After 60 minutes): 100%
- Percent of Lice Still Alive (head lice; After Minutes: None): 100%
- percentage activity of the lice, 100 being all alive, 0 being all dead ([4]; Time 0 mins): 100%
- percentage activity of the lice, 100 being all alive, 0 being all dead ([4]; Time 1 mins): 100%
- percentage activity of the lice, 100 being all alive, 0 being all dead ([4]; Time 5 mins): 100%
- percentage activity of the lice, 100 being all alive, 0 being all dead ([4]; Time 10 mins): 100%
- percentage activity of the lice, 100 being all alive, 0 being all dead ([4]; Time 20 mins): 100%
- percentage activity of the lice, 100 being all alive, 0 being all dead ([4]; Time 30 mins): 100%
- percentage activity of the lice, 100 being all alive, 0 being all dead ([4]; Time 60 mins): 100%
- percentage activity of the lice, 100 being all alive, 0 being all dead ([4]; Time 90 mins): 90%
- percentage activity of the lice, 100 being all alive, 0 being all dead ([4]; Time 120 mins): 80%
- percentage activity of the lice, 100 being all alive, 0 being all dead ([4]; Time 180 mins): 60%
- percentage activity of the lice, 100 being all alive, 0 being all dead ([4]; Time 240 mins): 50%
- lice killed ([4]; after about 4 hours): approximately 50%
